Measurements: article PMC11272598, “RG7774 (Vicasinabin), an orally bioavailable cannabinoid receptor 2 (CB2R) agonist, decreases retinal vascular permeability, leukocyte adhesion, and ocular inflammation in animal models” (Frontiers in Pharmacology, 2024)

How the values were obtained:
human CB2R = molecular target: T1, human CB2R (Homo sapiens, UniProt P34972); assay: Competition binding, [^3H]-CP55940, CHO cell membranes; conditions: competition binding assays
T1 construct: bgal (beta-galactosidase fragment of the PathHunter system); host or cells: CHO-K1
T1 sequence (P34972 whole entry, the tested form may be a part): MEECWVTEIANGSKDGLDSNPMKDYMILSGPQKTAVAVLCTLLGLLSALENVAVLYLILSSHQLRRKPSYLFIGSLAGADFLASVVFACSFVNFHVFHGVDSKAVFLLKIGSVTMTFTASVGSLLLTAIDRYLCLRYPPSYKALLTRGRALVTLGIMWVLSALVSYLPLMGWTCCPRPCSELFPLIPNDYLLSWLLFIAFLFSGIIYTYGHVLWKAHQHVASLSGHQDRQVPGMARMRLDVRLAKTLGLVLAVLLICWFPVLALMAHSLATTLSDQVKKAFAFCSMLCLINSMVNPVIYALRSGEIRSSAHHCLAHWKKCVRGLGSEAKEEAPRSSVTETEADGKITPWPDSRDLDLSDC
Method: (§1) Competition and saturation binding assays were performed using the radiolabeled CB1R/CB2R agonist [^3H]-CP55940 (PerkinElmer, Waltham, MA, United States) in recombinant cell systems, and the newly developed CB2R-selective agonist [^3H]-RO6753361 ([Chicca et al., 2024]) in cells expressing endogenous CB1R/CB2R. Competition assays were conducted by incubating 5, 40, or 40 µg of membrane protein from CHO cells, Jurkat cells or spleen cells, respectively, with 1.5 nM [^3H]-CP55940 or 1.5 nM [^3H]-RO6753361 in the presence or absence of increasing concentrations of ligand (RG7774 or control) for 2 h at 30°C in a final volume of 0.2 mL of assay buffer (50 mmol/L Tris-HCl, 5 mmol/L MgCl2, 2.5 mmol/L EDTA, and 0.5% fatty acid-free BSA [pH 7.4] and 1% DMSO), with gentle shaking. Saturation binding assays were conducted by incubating 1–3 μg, 40 μg, or 30–40 μg of membrane protein from CHO cells, Jurkat cells, or spleen tissue, respectively, with 12 concentrations in the range of 80–0.039 nM [^3H]-CP55940 or [^3H]-RO6753361 for 2 h at 30°C in a final volume of 0.2 mL/well of assay buffer without DMSO. […] IC50 values and Hill slopes were determined with a 4-parameter logistic model using ActivityBase (ID Business Solution, Guilford, United Kingdom) and pKi values were determined using the Cheng-Prusoff equation ([Cheng and Prusoff, 1973]).

human CB1R = human CB1R (Homo sapiens, UniProt P21554); assay: as above; set-up: expressed in transfected cells; host or cells: CHO cells (membranes); conditions: CHO cells
Sequence of human CB1R (P21554 whole entry): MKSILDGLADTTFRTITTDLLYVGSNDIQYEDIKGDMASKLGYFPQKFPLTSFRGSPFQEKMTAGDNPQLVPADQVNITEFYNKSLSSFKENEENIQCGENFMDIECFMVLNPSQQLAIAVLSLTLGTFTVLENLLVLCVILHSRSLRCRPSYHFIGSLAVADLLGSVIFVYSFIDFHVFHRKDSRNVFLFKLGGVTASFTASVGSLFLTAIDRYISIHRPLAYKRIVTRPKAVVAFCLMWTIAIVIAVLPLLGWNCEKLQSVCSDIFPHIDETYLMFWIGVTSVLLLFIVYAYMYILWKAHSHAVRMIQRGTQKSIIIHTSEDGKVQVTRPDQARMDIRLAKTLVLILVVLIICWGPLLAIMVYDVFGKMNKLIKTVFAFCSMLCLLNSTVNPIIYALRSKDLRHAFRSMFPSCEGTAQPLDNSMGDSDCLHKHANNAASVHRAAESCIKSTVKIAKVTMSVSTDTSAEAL
Method: as §1

Microsomal clearance = type: in vitro ADME; conditions: pH 7.4
Method: Commercially-available ultra-pooled microsome preparations from human (150 different donors) (BD UltraPool HLM 150, Beckton Dickinson, Japan) or mouse liver tissues (Beckton Dickinson) were incubated in 96-deep-well plates containing 0.1 M phosphate buffer (pH 7.4) at 37 °C on a TECAN liquid handling system equipped with Teleshake shakers and a warming device (Tecan Group Ltd., Switzerland). The NADPH regenerating system consisted of 30 mM glucose-6-phosphate disodium salt hydrate, 10 mM NADP, 30 mM MgCl2 × 6 H2O, and 5 mg/mL glucose-6-phosphate dehydrogenase (Roche Diagnostics, IN, USA) in 0.1 M potassium phosphate buffer (pH 7.4). The microsome mixture (0.5 mg/mL) was incubated with 1 μM RG7774 in 96-well plates at 37 °C. After 1, 3, 6, 9, 15, 25, 35, and 45 min, aliquots of the incubations (40 μL) were removed and reactions were quenched with 1:3 (v/v) acetonitrile containing internal standards. Samples were cooled, centrifuged, and analyzed by liquid chromatography-mass spectroscopy (LC-MS)/mass spectroscopy (MS). Log peak area ratios (test compound peak area/internal standard peak area) were plotted against incubation time with a linear fit. The calculated slope was used to determine the intrinsic clearance: CLint (μL/min/mg protein) = –slope (min–1) × 1000/protein concentration, mg/mL.

[1] = Aqueous stability assay (ASTA); type: physicochemical; conditions: 37 °C, 2 h
Method: Aqueous solutions of RG7774 were prepared at 5 different pHs (pH 1-10) from DMSO stock solutions, added to incubation plates and shaken for 10 min at 37 °C. Solutions were transferred to a filter plate (Millipore MSGVN2250, pore size 0.22 μm) and filtered into V-bottom plates (ABGene, AB-0800) prior to heat-sealing. The procedure was repeated, increasing the 37 °C incubation time by 2 h. Samples were analyzed by HPLC at 0 and 2 h. A compound was classified as unstable if < 90% of the initial concentration was detected after 2 h.

[2] = Plasma PK profile in mice; type: in vivo, C57BL/6J mice
Method: The plasma PK profile of RG7774 was assessed in adult male C57BL/6J mice and female Wistar rats (Charles River, Cologne, Germany) housed in a controlled environment (temperature, humidity, and 12 h light/dark cycle) with unrestricted access to food and water. The ocular PK profile of RG7774 was assessed in adult female […] rats (Charles River, Mattawan, MI, United States) housed in a controlled environment (21°C–22°C temperature, 40%–60%, humidity, and 12 h light/dark cycle) with unrestricted access to food and water and conducted according to local regulations by EyeCRO (Ann Arbor, MI, United States).
In the first study (animal permission #1857), mice received RG7774 as an intravenous (IV) bolus at 1 mg/kg (n = 6) or as an oral (PO) dose at 3 mg/kg (n = 5). In the second study (animal permission #2373), rats received RG7774 as an IV bolus at 10 mg/kg (n = 4) or via gavage at 30 mg/kg (n = 3). Blood samples were collected 0.1, 1, 3, 10, and 24 h post-dose under deep anesthesia with 3%–5% isoflurane in 100% O2. Samples were collected sublingually from mice, from the tail vein in rats or via heart puncture (terminal) into anticoagulant-coated polypropylene tubes and placed on ice. Plasma was prepared within 30 min of collection by centrifugation at 3,000 g for 5 min at 4°C and was immediately frozen. RG7774 concentrations in plasma were determined using LC-MS/MS. PK parameters were estimated by non-compartmental analysis of plasma data using Phoenix WinNonlin software (Certara, Princeton, NJ, United States).

[3] = male, C57BL/6J, mouse, plasma, IV 1 mg/kg
[4] = male, C57BL/6J, mouse, plasma, PO 3 mg/kg

## Cn1nnnc1Cn1nnc2c(N3CC[C@H](O)C3)nc(C(C)(C)C)nc21 [RG7774, (S)-1-(5-tert-butyl-3-[(1-methyl-1H-tetrazol-5-yl)methyl]-3H-[1,2,3]triazolo[4,5-d]pyrimidin-7-yl)pyrrolidin-3-ol]
Human CB2R
  binding selectivity for recombinant human CB2R over CB1R: > 195 fold
Human CB1R
  binding to recombinant human CB1R: no binding
Microsomal clearance; human
  microsomal CLint at 1 µM: 21.7 µL/min/mg
Microsomal clearance; mouse, mouse liver microsomes
  microsomal CLint at 1 µM: 15 µL/min/mg
Microsomal clearance; rat, rat microsomes
  microsomal CLint at 1 µM: 25 µL/min/mg
[1]
  Chemical stability in aqueous media at pH 1–10: stable
[2]; IV 1 mg/kg
  AUCinf/dose: 1,230 ng h^–1 ml^–1 (mg kg^−1) ^−1
[2]; PO 3 mg/kg
  AUCinf/dose: 490 ng h^–1 ml^–1 (mg kg^−1) ^−1
  Cmax/dose: 487 ng ml^–1 (mg kg^–1) ^−1
[2]; [3]
  clearance: 13.2 mL/min/kg
  half-life: 9.04 h
[2]; male, C57BL/6J, mouse, plasma, IV 1 mg/kg, read-out: Vss
  Vd: 3.7 L/kg
[2]; [4]
  Tmax: 0.25 h
  bioavailability: 42.2%
  half-life: 2.1 h
